Data on four compounds can be found in US20230263752A1, “VETERINARY COMPOSITIONS FOR THE TREATMENT AND/OR PREVENTION OF PROTOZOAN DISEASES AND METHODS OF PREPARATION THEREOF” (ADIFEED SP. Z O. O., priority 2020, published 2023).

The test system of assay [1] is Gregarina blattarum. The assay can be described thus: in vitro protozoicidal test on gregarines isolated from cockroaches, in Ringer's solution. The assay is classed as cell-based. The following applies: for LD100: 100% mortality within 3 minutes. The text has this:
For in vitro tests of antiprotozoal activity of the composition five reference organisms representing taxonomic groups to which pathogenic protozoa belong were selected, i.e: • Amoeba proteus—Chaos diffluens—a protozoan of the order Euamoebida, belonging to fifth supergroup of the Amoebozoa, living in waters. • Paramecium caudatum—a slipper animalcule representing the Ciliata orachs, living in waters. • Gregarina blattarum—gregarine isolated from cockroaches, representing the phylum Apicomplexa, living in the digestive tracts or body cavities of invertebrates. • Euglena gracilis—a protozoan living in water, representing the flagellates—Mastigophora, family Euglenaceae. • Trichomonas hominis—a protozoan living in the human colon, representing the Trichomonadidae.
The gregarines were isolated from the cockroaches and, after being placed on a watch slide, were treated with the products at different concentrations in Ringer's solution. Each sample contained ten individuals.
The compositions, negative controls, and positive controls were dissolved in an aqueous solution of polysorbate 80 (0.05%) before application to a watch slide.
After this time, the reaction product was filtered through filter paper. […] Compositions I and II were then analysed for their antiprotozoal properties. […]
The tested preparations were dissolved in an aqueous solution of polysorbate 80 (0.05%) before being applied to a watch glass. […] Observation under a fluorescence microscope with phase contrast was carried out.

Assay [2] has as its system Amoeba proteus. The experiment in a line: in vitro protozoicidal test on watch glass, LD50/LD100. The assay is classed as cell-based.
The subject of assay [3] is Trichomonas hominis. The description is as above. The class given is cell-based.
In assay [4] the test system is Trypanosoma cruzi. As to conditions: read-out: inhibitory effect on 50% of the population (IC50); cited from earlier work.
The test system of assay [5] is Trypanosoma cruzi and Leishmania chagasi. The following applies: cited from earlier work.
Assay [6] relates to Trypanosoma cruzi and different Leishmania species. The following applies: cited from earlier work.
The mark [7] stands for this setting: 100% mortality within 3 minutes.

Values joined by “and” are separate entries in the source; they are usually repeats but may differ in a detail not shown here. Equal values may be shown once.

On to `Cc1ncc([N+](=O)[O-])n1CCO` [M, metronidazole], for which the LD50 in assay [1] (50% mortality within 3 minutes) was 0.13% and 0.3%; in assay [2] (50% mortality within 3 minutes), 0.3%; in assay [3] (50% mortality within 3 minutes), 0.05% and 0.08%. Moreover, the LD100 in assay [1] was 0.3%; in assay [2] (setting [7]), 0.5%; in assay [3] (setting [7]) it was 0.1% and 0.15%.
As to `CC1CS(=O)(=O)CCN1/N=C/c1ccc([N+](=O)[O-])o1` (stereo not shown) [Nifurtimox], the figures for the IC50 in assay [4] and in assay [5] were 6 µM and 0.3 to 0.4 µg/mL, respectively.
In the case of `O=C(Cn1ccnc1[N+](=O)[O-])NCc1ccccc1` [benznidazole], in assay [6], the “values obtained (in vitro antiprotozoal activity)” value is 45.02 µg/mL.
“copper carbonate [Copper carbonate solution]”: the LD100 in assay [1] amounted to 0.37%.

Broadly, the IC50 is the concentration that gives 50% inhibition.
